Laboratory results as given in patent US20150105252A1, “SUBSTITUTED PYRAZOLES AS HERBICIDES” (E I DU PONT DE NEMOURS AND COMPANY, priority 2013, published 2015).

Columns and labels:
[1] = system: ducksalad; test: Test B flood; format: in vivo, Heteranthera limosa; settings: 250 g ai/ha, visual rating on 0 to 100 scale (0 no effect, 100 complete control), 13 to 15 days
Method in brief: (§1)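 Paddy-water application: seedlings at 2-leaf stage, flood depth 3 cm maintained for the test duration. Evaluation after 13–15 days in the greenhouse by eye relative to controls; 0–100 scale.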

[2] = system: wheat; test: Test A preemergence; format: in vivo, Triticum aestivum; settings: preemergence; for Wheat plant response rating (0 to 100 scale): visual injury approx. 10 days after treatment
Method in brief: (§2)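 Visual injury ratings, 0 = no effect to 100 = complete control, taken about 10 days after treatment against untreated controls. Test chemicals, in a non-phytotoxic surfactant-containing solvent, were sprayed onto soil preemergence or onto one- to two-leaf plants (2–10 cm) postemergence, in loam–sand soil under greenhouse conditions.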

[3] = system: rice; test: Test B flood; format: in vivo, Oryza sativa; settings: 250 g ai/ha, visual rating on 0 to 100 scale (0 no effect, 100 complete control), 13 to 15 days
Method in brief: as §1

[4] = system: crabgrass, large; test: Test A postemergence; format: in vivo, Digitaria sanguinalis
Method in brief: as §2

[5] = system: velvetleaf; test: Test A preemergence; format: in vivo, Abutilon theophrasti; settings: preemergence; for Velvetleaf plant response rating (0 to 100 scale): visual injury approx. 10 days after treatment
Method in brief: as §2

[6] = system: corn; test: Test A postemergence; format: in vivo, Zea mays
Method in brief: as §2

[7] = system: wheat; test: Test A postemergence; format: in vivo, Triticum aestivum
Method in brief: as §2

[8] = system: crabgrass, large; test: Test A preemergence; format: in vivo, Digitaria sanguinalis; settings: preemergence; for Crabgrass, Large plant response rating (0 to 100 scale): visual injury approx. 10 days after treatment
Method in brief: as §2

[9] = system: morningglory; test: Test A preemergence; format: in vivo, Ipomoea spp.; settings: preemergence; for Morningglory plant response rating (0 to 100 scale): visual injury approx. 10 days after treatment
Method in brief: as §2

[10] = system: pigweed; test: Test A postemergence; format: in vivo, Amaranthus retroflexus
Method in brief: as §2

[11] = system: barnyardgrass; test: Test B flood; format: in vivo, Echinochloa crus-galli; settings: 250 g ai/ha, visual rating on 0 to 100 scale (0 no effect, 100 complete control), 13 to 15 days
Method in brief: as §1

[12] = system: foxtail, giant; test: Test A postemergence; format: in vivo, Setaria faberii
Method in brief: as §2

[13] = system: corn; test: Test A preemergence; format: in vivo, Zea mays; settings: preemergence; for Corn plant response rating (0 to 100 scale): visual injury approx. 10 days after treatment
Method in brief: as §2

[14] = system: foxtail, giant; test: Test A preemergence; format: in vivo, Setaria faberii; settings: preemergence; for Foxtail, Giant plant response rating (0 to 100 scale): visual injury approx. 10 days after treatment
Method in brief: as §2

[15] = system: barnyardgrass; test: Test A preemergence; format: in vivo, Echinochloa crus-galli; settings: preemergence
Method in brief: as §2

[16] = system: morningglory; test: Test A postemergence; format: in vivo, Ipomoea spp.
Method in brief: as §2

[17] = system: barnyardgrass; test: Test A postemergence; format: in vivo, Echinochloa crus-galli
Method in brief: as §2

[18] = system: pigweed; test: Test A preemergence; format: in vivo, Amaranthus retroflexus; settings: preemergence; for Pigweed plant response rating (0 to 100 scale): visual injury approx. 10 days after treatment
Method in brief: as §2

[19] = system: velvetleaf; test: Test A postemergence; format: in vivo, Abutilon theophrasti
Method in brief: as §2

[20] = system: sedge, umbrella; test: Test B flood; format: in vivo, Cyperus difformis; settings: 250 g ai/ha, visual rating on 0 to 100 scale (0 no effect, 100 complete control), 13 to 15 days
Method in brief: as §1

[21] = 500 g ai/ha, visual injury, 0 to 100 scale, approx. 10 days
[22] = Postemergence, 125 g ai/ha, 0 to 100 scale, 0 no effect, 100 complete control
[23] = Postemergence, 500 g ai/ha, 0 to 100 scale (0 no effect, 100 complete control)
[24] = 125 g ai/ha, visual injury, 0 to 100 scale, approx. 10 days
[25] = 500 g ai/ha, visual injury after approx. 10 days, 0 to 100 scale (0 no effect, 100 complete control)
[26] = Postemergence, 500 g ai/ha, visual rating after approx. 10 days, 0 to 100 scale (0 no effect, 100 complete control)
[27] = postemergence, 125 g ai/ha, about 10 days, visual rating on 0 to 100 scale (0 no effect, 100 complete control)

CCONC(=O)c1cc(C)n(Cc2ccnc(C(F)(F)F)c2)n1 [Compound 231]
0: Plant response rating, Ducksalad [1] | Wheat plant response rating (0 to 100 scale) ([2]; 125 g ai/ha) | Wheat plant response rating [2, 21] | Plant response rating, Rice [3] | Crabgrass, Large plant response rating [4, 22] | Velvetleaf plant response rating (0 to 100 scale) ([5]; 125 g ai/ha) | Velvetleaf plant response rating [5, 21] | Corn plant response rating [6, 22] | Wheat plant response rating [7, 22] | Wheat plant response rating [7, 23] | Crabgrass, Large plant response rating (0 to 100 scale) ([8]; 125 g ai/ha) | Crabgrass, Large plant response rating [8, 21] | Morningglory plant response rating (0 to 100 scale) ([9]; 125 g ai/ha) | Morningglory plant response rating [9, 21] | Pigweed plant response rating [10, 22] | Pigweed plant response rating [10, 23] | Plant response rating, Barnyardgrass [11] | Foxtail, Giant plant response rating [12, 22] | Foxtail, Giant plant response rating [12, 23] | Corn plant response rating (0 to 100 scale) ([13]; 125 g ai/ha) | Corn plant response rating [13, 21] | Foxtail, Giant plant response rating (0 to 100 scale) ([14]; 125 g ai/ha) | Foxtail, Giant plant response rating [14, 21] | Barnyardgrass plant response rating (0 to 100 scale, 0 is no effect, 100 is complete control) ([15]; 125 g ai/ha, visual injury approx. 10 days after treatment) | Barnyardgrass plant response rating ([15]; 500 g ai/ha, visual injury, 0 to 100 scale (0 no effect, 100 complete control), approx. 10 days) | Morningglory plant response rating [16, 22] | Morningglory plant response rating [16, 23] | Barnyardgrass plant response rating [17, 22] | Barnyardgrass plant response rating [17, 23] | Pigweed plant response rating (0 to 100 scale) ([18]; 125 g ai/ha) | Pigweed plant response rating [18, 21] | Velvetleaf plant response rating [19, 22] | Velvetleaf plant response rating [19, 23] | Plant response rating, Sedge, Umbrella [20]
10: Crabgrass, Large plant response rating [4, 23] | Corn plant response rating [6, 23]

CCCNC(=O)c1cc(CC)n(Cc2cccc(C(F)(F)F)n2)n1 [Compound 88]
30: Crabgrass, Large plant response rating [8, 25]
10: Crabgrass, Large plant response rating [4, 26] | Corn plant response rating [6, 26] | Morningglory plant response rating [9, 25] | Pigweed plant response rating [10, 26] | Morningglory plant response rating [16, 26] | Morningglory plant response rating [16, 27] | Velvetleaf plant response rating [19, 26]
0: Plant response rating, Ducksalad [1] | Wheat plant response rating [2, 24] | Wheat plant response rating [2, 25] | Plant response rating, Rice [3] | Crabgrass, Large plant response rating [4, 27] | Velvetleaf plant response rating [5, 24] | Velvetleaf plant response rating [5, 25] | Corn plant response rating [6, 27] | Wheat plant response rating [7, 26] | Wheat plant response rating [7, 27] | Crabgrass, Large plant response rating [8, 24] | Morningglory plant response rating [9, 24] | Pigweed plant response rating [10, 27] | Plant response rating, Barnyardgrass [11] | Foxtail, Giant plant response rating [12, 26] | Foxtail, Giant plant response rating [12, 27] | Corn plant response rating [13, 24] | Corn plant response rating [13, 25] | Foxtail, Giant plant response rating [14, 24] | Foxtail, Giant plant response rating [14, 25] | Barnyardgrass plant response rating [15, 24] | Barnyardgrass plant response rating [15, 25] | Barnyardgrass plant response rating [17, 22] | Barnyardgrass plant response rating [17, 26] | Pigweed plant response rating [18, 24] | Pigweed plant response rating [18, 25] | Velvetleaf plant response rating [19, 27] | Plant response rating, Sedge, Umbrella [20]

CCCCNC(=O)c1cc(Br)n(Cc2cccc(C(F)(F)F)c2)n1 [Compound 162]
40: Pigweed plant response rating [10, 27] | Morningglory plant response rating [16, 23] | Velvetleaf plant response rating [19, 23]
10: Crabgrass, Large plant response rating [4, 27] | Corn plant response rating [6, 27] | Foxtail, Giant plant response rating [12, 27]
20: Crabgrass, Large plant response rating [4, 23] | Corn plant response rating [6, 23] | Foxtail, Giant plant response rating [12, 23] | Morningglory plant response rating [16, 27] | Barnyardgrass plant response rating [17, 23]
60: Pigweed plant response rating [10, 23] | Foxtail, Giant plant response rating [14, 25]
0: Plant response rating, Ducksalad [1] | Wheat plant response rating (0 to 100 scale) ([2]; 125 g ai/ha) | Wheat plant response rating [2, 25] | Plant response rating, Rice [3] | Velvetleaf plant response rating (0 to 100 scale) ([5]; 125 g ai/ha) | Velvetleaf plant response rating [5, 25] | Wheat plant response rating [7, 23] | Wheat plant response rating [7, 27] | Crabgrass, Large plant response rating (0 to 100 scale) ([8]; 125 g ai/ha) | Morningglory plant response rating (0 to 100 scale) ([9]; 125 g ai/ha) | Morningglory plant response rating [9, 25] | Plant response rating, Barnyardgrass [11] | Corn plant response rating (0 to 100 scale) ([13]; 125 g ai/ha) | Corn plant response rating [13, 25] | Foxtail, Giant plant response rating (0 to 100 scale) ([14]; 125 g ai/ha) | Barnyardgrass plant response rating [15, 24] | Barnyardgrass plant response rating [15, 25] | Barnyardgrass plant response rating [17, 27] | Pigweed plant response rating (0 to 100 scale) ([18]; 125 g ai/ha) | Pigweed plant response rating [18, 25] | Velvetleaf plant response rating [19, 27] | Plant response rating, Sedge, Umbrella [20]
30: Crabgrass, Large plant response rating [8, 25]
